Assay results as given in PMC4291531 (The Journal of Experimental Medicine, 2015).

T1: human MD-2 (Homo sapiens, UniProt Q9Y6Y9)
T1 sequence (Q9Y6Y9 19-160): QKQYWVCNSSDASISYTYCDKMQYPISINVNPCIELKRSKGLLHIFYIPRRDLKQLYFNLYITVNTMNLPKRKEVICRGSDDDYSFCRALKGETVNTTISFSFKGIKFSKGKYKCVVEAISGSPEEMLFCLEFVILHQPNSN

B1: Hg-HMGB1: HMGB1 with mercury thiolate on cysteine at position 106 (protein, UniProt P09429 1-215, looked up)
High mobility group protein B1: MGKGDPKKPRGKMSSYAFFVQTCREEHKKKHPDASVNFSEFSKKCSERWKTMSAKEKGKFEDMAKADKARYEREMKTYIPPKGETKKKFKDPNAPKRPPSAFFLFCSEYRPKIKGEHPGLSIGDVAKKLGEMWNNTAADDKQPYEKKAAKLKEKYEKDIAAYRAKGKPDAAKKGVVKAEKSKKKKEEEEDEEDEEDEEEEEDEEDEDEEEDDDDE
modifications: mercury thiolate on C106

What was measured:
WT or MD-2 KO mice = test: APAP hepatotoxicity in WT or MD-2 KO mice; type: in vivo, mouse
RAW 264.7 cells = test: TNF release from RAW 264.7 cells stimulated with HMGB1 isoforms; settings: 1 µg/ml, 16 h, n = 3–5 experiments
human MD-2 = target: T1, human MD-2; test: SPR; type: binding; settings: MD-2 coated on chip; for reduction in MD-2 binding as compared with disulfide HMGB1: SPR, HMGB1 isoforms
[1] = target: human MD-2 (myeloid differentiation factor 2) (human) (UniProt Q9Y6Y9); test: SPR
[2] = system: thioglycollate-elicited peritoneal macrophages (WT and MD-2 KO); type: cell-based; settings: MD-2 KO vs WT macrophages; mouse cytokine antibody array
immune cells = settings: ref Tang et al., 2012, Venereau et al.; cited from earlier work

Molecule	TNF release induced by HMGB1 isoform (RAW 264.7 cells)	reduction in MD-2 binding as compared with disulfide HMGB1 (human MD-2)	extracellular chemokine/cytokine activity (in words) (immune cells)	also measured
CC(=O)Nc1ccc(O)cc1 [APAP, acetaminophen]	–	–	–	serum HMGB1 levels, WT and MD-2 KO mice (WT or MD-2 KO mice; 24 h after APAP): comparably elevated in WT and MD-2 KO mice; APAP acute hepatic injury (GLDH, AST, ALT, necrosis), MD-2 KO vs WT (WT or MD-2 KO mice; APAP 400 mg/kg i.p., 24 h, n = 5–13 mice per group): significant reduction in acute hepatic injury; cytokine release and APAP-induced lethality, MD-2 KO vs WT (WT or MD-2 KO mice; APAP i.p. 400 mg/kg (serum, 24 h), 350 mg/kg (survival, n = 15)): significant reduction in cytokine (TNF and IL-6) release and APAP-induced animal lethality
H2S-modified HMGB1: HMGB1 S-sulfhydrated by incubation with 5 mM NaSH for 3 h at room temperature	failed to induce TNF release	> 1,000 fold	–	–
disulfide HMGB1 (from UniProt P63159 1-215) (natural protein)	–	–	–	Kd [1]: 12 nM
disulfide HMGB1: recombinant cytokine-stimulating HMGB1; disulfide bond between cysteines 23 and 45 and reduced thiol on cysteine 106	induced TNF secretion	–	activates immune cells to produce cytokines/chemokines via the TLR4 receptor	release of IL-12/p40 stimulated with HMGB1 [2]: via an MD-2–independent mechanism; MD-2 binding (in words) (human MD-2; SPR Biacore): binds to MD-2 with high affinity
fully reduced HMGB1: HMGB1 with all cysteine residues reduced (DTT-reduced)	failed to induce TNF release	> 1,000 fold	binds to CXCL12 and stimulates immune cell infiltration via the CXCR4 receptor	–
sulfonyl HMGB1 (from UniProt P63159 1-215) (natural protein)	–	–	–	fold reduction in MD-2 binding against disulfide HMGB1 [1]: > 1000 fold
sulfonyl HMGB1: HMGB1 with all cysteines terminally oxidized	failed to induce TNF release	> 1,000 fold	devoid of chemotactic and cytokine activities	–
B1	Noncytokine-inducing	–	–	–
